Biological target: Stromal cell-derived factor 1 (Homo sapiens, UniProt P48061)
Assay: Binding affinity to wild type CXCL12 (unknown origin) by NMR spectroscopy; call rule not given here

Chain of Stromal cell-derived factor 1 (P48061 whole entry): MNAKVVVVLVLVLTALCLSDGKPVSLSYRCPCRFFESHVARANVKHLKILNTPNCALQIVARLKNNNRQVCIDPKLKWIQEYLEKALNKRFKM

Compound	Kd	Kd (read-out: Kd) [µM]
O=C(O)c1ccc(Nc2nc(Nc3ccc(C(=O)O)cc3)nc(-c3ccccc3)n2)cc1	Nd(Insoluble)	
O=C(O)CSc1nc(SCC(=O)O)nc(C2C3CC4CC(C3)CC2C4)n1 (stereo unspecified)	Not Active	
O=C(O)CSc1nc(SCC(=O)O)nc(C2=CCCCC2)n1	Nd(Insoluble)	
O=C(O)CSc1nc(SCC(=O)O)nc(-c2c3ccccc3cc3ccccc23)n1	Not Active	
O=C(O)CSc1nc(SCC(=O)O)nc(-c2ccc(N3CCOCC3)cc2)n1		306
O=C(O)CSc1nc(SCC(=O)O)nc(N2CCOCC2)n1		234
O=C(O)CSc1nc(SCC(=O)O)nc(-c2cnc3ccccc3c2)n1	Nd(Insoluble)	
O=C(O)CSc1nc(SCC(=O)O)nc(-c2ccc(Oc3ccccc3)cc2)n1	Nd(Insoluble)	
C[N+]1(c2nc(SCC(=O)O)nc(SCC(=O)O)n2)CCOCC1		3020
O=C(O)CSc1nc(SCC(=O)O)nc(-c2ccoc2)n1	Nd(Insoluble)	
O=C(O)CSc1nc(SCC(=O)O)nc(-c2ccc(-c3ccccc3)cc2)n1	Nd(Insoluble)	

Source: ChEMBL document CHEMBL4823329, “Trisubstituted 1,3,5-Triazines: The First Ligands of the sY12-Binding Pocket on Chemokine CXCL12” (ACS Med Chem Lett, 2021)
